The results in this text go back to patent publication EP4268823A1, “COMPOUND FOR TREATING NEUROINFLAMMATION” (Universitätsklinikum Hamburg-Eppendorf, priority 2022, dated 2023).

This test addresses T1, G9a (Mus musculus, UniProt Q9Z148).
T1 construct: UNC0642 pre-treated primary neuronal cultures compared to respective controls; endogenous in cells; host or cells: primary mouse cortical neuronal cultures (C57BL/6J embryos)
T1 sequence (Q9Z148 1-1263): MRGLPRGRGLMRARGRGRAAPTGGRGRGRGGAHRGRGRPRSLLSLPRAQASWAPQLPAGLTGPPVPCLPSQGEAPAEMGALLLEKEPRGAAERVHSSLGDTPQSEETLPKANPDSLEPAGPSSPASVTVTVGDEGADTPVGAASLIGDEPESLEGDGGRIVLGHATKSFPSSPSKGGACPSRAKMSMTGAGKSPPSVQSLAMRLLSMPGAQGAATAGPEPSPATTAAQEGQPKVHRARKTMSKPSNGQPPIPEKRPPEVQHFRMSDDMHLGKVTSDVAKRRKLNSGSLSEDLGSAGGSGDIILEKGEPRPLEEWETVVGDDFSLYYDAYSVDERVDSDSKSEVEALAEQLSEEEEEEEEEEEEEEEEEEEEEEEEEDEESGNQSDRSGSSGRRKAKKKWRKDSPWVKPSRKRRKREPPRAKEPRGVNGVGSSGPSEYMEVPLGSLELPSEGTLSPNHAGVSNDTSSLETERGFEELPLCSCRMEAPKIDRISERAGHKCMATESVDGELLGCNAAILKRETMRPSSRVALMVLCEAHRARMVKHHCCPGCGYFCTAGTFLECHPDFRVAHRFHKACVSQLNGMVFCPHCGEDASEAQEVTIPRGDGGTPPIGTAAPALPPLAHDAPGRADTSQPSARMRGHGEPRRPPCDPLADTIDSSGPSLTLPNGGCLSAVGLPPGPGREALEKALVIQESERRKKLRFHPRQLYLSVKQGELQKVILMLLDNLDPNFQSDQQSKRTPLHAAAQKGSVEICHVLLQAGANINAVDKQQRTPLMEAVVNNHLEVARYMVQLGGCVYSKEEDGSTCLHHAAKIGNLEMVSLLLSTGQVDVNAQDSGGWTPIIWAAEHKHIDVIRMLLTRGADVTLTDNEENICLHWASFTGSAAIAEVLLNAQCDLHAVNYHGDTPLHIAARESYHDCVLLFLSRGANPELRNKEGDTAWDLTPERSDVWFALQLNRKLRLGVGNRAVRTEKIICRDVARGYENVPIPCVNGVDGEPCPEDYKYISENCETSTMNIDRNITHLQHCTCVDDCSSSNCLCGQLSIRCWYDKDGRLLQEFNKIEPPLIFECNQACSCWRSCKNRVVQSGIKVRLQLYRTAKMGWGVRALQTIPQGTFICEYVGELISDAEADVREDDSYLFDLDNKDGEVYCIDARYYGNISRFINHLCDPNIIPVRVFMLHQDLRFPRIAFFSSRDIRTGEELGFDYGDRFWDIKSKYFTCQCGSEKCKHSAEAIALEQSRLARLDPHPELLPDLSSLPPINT
Nature of the test: Flow cytometry of H3K9me2 in spinal cord neuronal nuclei of EAE mice. Conditions: EAE animals, 5 mg kg-1 UNC0642. In kind it is in vivo.

With `COc1cc2c(NC3CCN(C(C)C)CC3)nc(N3CCC(F)(F)CC3)nc2cc1OCCCN1CCCC1` [UNC0642, 2-(4,4-difluoropiperidin-1-yl)-6-methoxy-N-[1-(propan-2-yl)piperidin-4-yl]-7-[3-(pyrrolidin-1-yl)propoxy]quinazolin-4-amine], the “H3K9me2 levels in neuronal nuclei” value is “complete normalization of H3K9me2 levels”.
